The source of these data is patent US9700056B2.

Assay [1] has as its system Venturia inaequalis. Nature of the assay: Venturia test (apples)/preventive. The note with it: Table A, preventive, evaluated 10 days after inoculation.
Description: After the spray coating has dried on, the plants are inoculated with an aqueous conidia suspension of the causal agent of apple scab (Venturia inaequalis) and then remain for 1 day in an incubation cabinet at approximately 20° C. and a relative atmospheric humidity of 100%.
The plants are then placed in a greenhouse at approximately 21° C. and a relative atmospheric humidity of approximately 90%.
The test is evaluated 10 days after the inoculation.
In assay [2] the test system is Sphaerotheca fuliginea. Nature of the assay: Sphaerotheca test (cucumbers)/preventive. To be noted: evaluated 7 days after inoculation.
Description: After the spray coating has dried on, the plants are inoculated with an aqueous spore suspension of Sphaerotheca fuliginea. The plants are then placed in a greenhouse at approximately 23° C. and a relative atmospheric humidity of approximately 70%.
The test is evaluated 7 days after the inoculation.
Assay [3] has as its system Botrytis cinerea. Nature of the assay: Botrytis test (beans)/preventive. To be noted: Table D, preventive, application rate 10 ppm a.i., size of lesions 2 days after inoculation.
Description: After the spray coating has dried on, 2 small pieces of agar covered with growth of Botrytis cinerea are placed on each leaf. The inoculated plants are placed in a darkened chamber at 20° C. and a relative atmospheric humidity of 100%.
2 days after the inoculation, the size of the lesions on the leaves is evaluated.
In assay [4] the test system is Alternaria solani. Nature of the assay: Alternaria test (tomatoes)/preventive. The note with it: Table C, preventive, application rate 50 ppm a.i., evaluated 3 days after inoculation.
Description: After the spray coating has dried on, the plants are inoculated with an aqueous spore suspension of Alternaria solani. The plants are then placed in an incubation cabinet at approximately 20° C. and a relative atmospheric humidity of 100%.
The test is evaluated 3 days after the inoculation.
[5] abbreviates: Table B2, preventive, application rate 2 ppm a.i.
The mark [6] stands for this setting: Table B1, preventive, application rate 100 ppm a.i.

Consider `CC1COC(Cn2cncn2)(c2ccc(Oc3ccc(Cl)cc3)cc2Cl)O1` (stereo not shown) [F7 difenoconazole, difenoconazole], for which the figures for the “Efficacy in % found” value in assay [1] (application rate 1 ppm a.i.) and in assay [2] (setting [5]) were 20% and 0%, respectively.

`CC1(C(=O)Nc2ccc(O)c(Cl)c2Cl)CCCCC1` [F16 fenhexamid, fenhexamid]: the figures for the “Efficacy in % found” value in assay [3], in assay [4] and in assay [2] (setting [6]) were 88%, 43% and 33%, respectively.

Regarding `OC(Cc1ccccc1Cl)(Cn1nc[nH]c1=S)C1(Cl)CC1` (stereo not shown) [F41 prothioconazole, prothioconazole], in assay [2] (setting [5]), the “Efficacy in % found” value was 38%.

`CCCN(CC)CC1COC2(CCC(C(C)(C)C)CC2)O1` (stereo not shown) [F46 spiroxamine, spiroxamine]: the “Efficacy in % found” value in assay [4] is on record as 62%; in assay [2] (setting [6]), 38%.

As for `CC(C)(C)C(O)(CCc1ccc(Cl)cc1)Cn1cncn1` (stereo not shown) [F47 tebuconazole, tebuconazole], the figures for the “Efficacy in % found” value in assay [1] (application rate 2 ppm a.i.) and in assay [2] (setting [5]) were 13% and 29%, respectively.
